Assay results from patent US20250360160A1, “NEW MEDICAL USE OF TAFOXIPARIN” (DILAFOR AB, priority 2022, published 2025).

System: term pregnant, nulliparous women with an unripe cervix
Assay: Clinical phase II trial PPL17 (Parts A and B), subcutaneous tafoxiparin vs placebo
Assay type: in vivo, human
Conditions: for proportion of women achieving spontaneous onset of labor: placebo 28.7%, FIG. 1; for Labor induced, number of subjects: onset of labor with intervention; for Labor induced with PGE-1, percent of subjects: placebo 10.2%; for Labor induced with amniotomy, percent of subjects: placebo 56.8%; for Labor induction with Balloon catheter, percent of subjects: placebo 58.0%; for Labor induced, percent of subjects: placebo 70.5%
Method: A clinical phase II trial is performed as a randomized, double-blind, placebo-controlled, parallel-group proof of concept study (Part A) with a conditional dose finding follow up study (Part B) to evaluate the efficacy, safety, tolerability and dose response of subcutaneously administered tafoxiparin as a supplement to induction therapy in term pregnant, nulliparous women with an unripe cervix. The study is performed in Sweden and Finland (PPL17), and an EMA (European Medicines Agency) description of the study can be found on the EU Clinical Trials Register web (www.clinicaltrialsregister.eu/ctr-search/search?query=PPL17).
A total of 170 term pregnant women are randomized to receive either 300 mg of tafoxiparin, or corresponding placebo (vehicle), administered subcutaneously every 24±3 hours and up to a total of 7 doses, or until partus (Part A).
In the dose finding follow up study (Part B), a total of 164 term pregnant women are randomized to receive either 75 or 150 mg of tafoxiparin administered subcutaneously every 24±3 hours […] and up to a total of 7 doses, or until partus.
To assess the efficacy of tafoxiparin on cervical ripening/cervical ripening rate, during and up to the first seven days of treatment, measured by Bishop score. All women must be examined to check the cervical state before enrollment.
Time from start of treatment to increase in Bishop score of ≥2 points or spontaneous onset of labor, whichever comes first. Time from start of treatment to increase in Bishop score of ≥3 points or spontaneous onset of labor, whichever comes first. Time from start of treatment to increase in Bishop score of ≥4 points or spontaneous onset of labor, whichever comes first.
Cervical ripening as measured by change from baseline to end of treatment in Bishop Score. Time from onset of labor to partus, where onset of labor is defined as last record of 4 cm cervical dilatation visualized in the partogram and progress of labor, or last record of 4 cm of cervical dilatation in combination with amniotomy and intravenous administration oxytocin.
Proportion of women with spontaneous onset of labor (Response group I).
Tafoxiparin/Placebo is supplied by Dilafor AB to the site as kits designed to constitute 300 mg of tafoxiparin or placebo for daily administration. Apart from the active substance, each ml of study drug will constitute 0.015 M phosphate buffer. The study medication kit for each patient will contain 8 doses consisting of 2 vials containing a minimum extractable volume of 1.6 ml of 150 mg/ml of tafoxiparin or placebo. One dose is a reserve dose in case a dose is rendered unusable. The investigational product should be administered subcutaneously every 24±3hours by the site staff for up to 7 doses, or until partus. At each dosing time 1.0 ml of the drug will be extracted from each of the 2 vials and injected as separate s.c. injections in the abdominal or hip region.
Tafoxiparin/Placebo is supplied by Dilafor AB to the site as kits designed to constitute 75 or 150 mg of tafoxiparin for daily administration. Apart from the active substance, each ml of study drug will constitute 0.015 M phosphate buffer. The study medication kit for each patient will contain 8 doses consisting of 2 vials for each injection occasion containing a minimum extractable volume of 1.6 ml of 150 mg/ml of tafoxiparin or placebo. For subjects receiving 75 mg of tafoxiparin, one vial will contain active substance and one containing placebo. For subjects receiving 150 mg of tafoxiparin, both vials will contain active substance. One dose is a reserve dose in case a dose is rendered unusable. The investigational product should be administered subcutaneously every 24±3 hours by the site staff for up to 7 doses, or until partus. At each dosing time, 0.5 ml of the drug will be extracted from each of the 2 vials and injected as separate s.c. injections in the abdominal or hip region. […]

[1] = 75 mg, n = 83, listed as tafoxiparin

Substance: tafoxiparin
- proportion of women achieving spontaneous onset of labor (75 mg daily s.c., of 82 women, p 0.102): 40.2%
- number of subjects (women) that reach spontaneous onset of labor (75 mg, Study day 1, n=33): 0
- percent of subjects (women) that reach spontaneous onset of labor (75 mg, Study day 1, n=33): (0%)
- number of subjects (women) that reach spontaneous onset of labor (75 mg, Study day 2, n=33): 3
- percent of subjects (women) that reach spontaneous onset of labor (75 mg, Study day 2, n=33): (9%)
- number of subjects (women) that reach spontaneous onset of labor (75 mg, Study day 3, n=33): 6
- percent of subjects (women) that reach spontaneous onset of labor (75 mg, Study day 3, n=33): (18%)
- number of subjects (women) that reach spontaneous onset of labor (75 mg, Study day 4, n=33): 11
- percent of subjects (women) that reach spontaneous onset of labor (75 mg, Study day 4, n=33): (33%)
- number of subjects (women) that reach spontaneous onset of labor (75 mg, Study day 5, n=33): 22
- percent of subjects (women) that reach spontaneous onset of labor (75 mg, Study day 5, n=33): (67%)
- number of subjects (women) that reach spontaneous onset of labor (75 mg, Study day 6, n=33): 25
- percent of subjects (women) that reach spontaneous onset of labor (75 mg, Study day 6, n=33): (76%)
- number of subjects (women) that reach spontaneous onset of labor (75 mg, Study day 7, n=33): 32
- percent of subjects (women) that reach spontaneous onset of labor (75 mg, Study day 7, n=33): (97%)
- number of subjects (women) that reach spontaneous onset of labor (75 mg, Study day 8, n=33): 33
- percent of subjects (women) that reach spontaneous onset of labor (75 mg, Study day 8, n=33): (100%)
- Fetal distress as indication for operative delivery (ODFD), number of patients (75 mg, n = 83): 16
- Labor induced with PGE-1, number of subjects (75 mg, n = 83): 7
- Labor induced with amniotomy, number of subjects (75 mg, n = 83): 46
- Labor induced with oxytocin, number of subjects (75 mg, n = 83): 34
- Labor induction with Balloon catheter, number of subjects (75 mg, n = 83): 35
- Labor induced, number of subjects (75 mg, n = 83): 48
- Labor induced with PGE-1, percent of subjects (75 mg, n = 83): (8.4%)
- Labor induced with PGE-1, percent of subjects [1]: 8.4%
- Fetal distress as indication for operative delivery (ODFD), percent of patients (75 mg, n = 83, placebo 22.7%): 19.3%
- Percent of patients with operative delivery (75 mg, n = 83, placebo 45.5%): 38.6%
- Labor induced with oxytocin, percent of subjects (75 mg, n = 83, placebo 54.5%): (41.0%)
- Labor induced with oxytocin, percent of subjects (75 mg, n = 83, placebo 54.5%, listed as tafoxiparin): 41.0%
- Labor induced with amniotomy, percent of subjects (75 mg, n = 83): (55.4%)
- Labor induced with amniotomy, percent of subjects [1]: 55.4%
- Labor induction with Balloon catheter, percent of subjects (75 mg, n = 83): (42.2%)
- Labor induction with Balloon catheter, percent of subjects [1]: 42.2%
- Labor induced, percent of subjects (75 mg, n = 83): (57.8%)
- Labor induced, percent of subjects [1]: 57.8%
- number of women reaching spontaneous onset of labor with uncomplicated delivery (75 mg, of 29 women): 22 women
- proportion of women reaching spontaneous onset of labor with uncomplicated delivery (75 mg, of 29 women, placebo 54.5%): 75.9%
- number of women needing instrumental delivery or caesarian section to reach partus (75 mg, of 33 women): 11 women
- number reaching partus by vaginal delivery with no need for instrumental delivery nor caesarian section (75 mg, of 33 women): 22 women
- number of women achieving spontaneous onset of labor (75 mg, of 82 women): 33 women
- number of women needing instrumental delivery (75 mg, spontaneous onset of labor, of 29 women): 7 women
- proportion reaching partus by vaginal delivery with no need for instrumental delivery nor caesarian section (75 mg, women with spontaneous onset of labor, of 33, placebo 48%, FIG. 5): 66.7%
- proportion of women needing instrumental delivery or caesarian section to reach partus (75 mg, women with spontaneous onset of labor, of 33, placebo 52%, FIG. 5): 33.3%
- proportion of women needing instrumental delivery (75 mg, women with spontaneous onset of labor, vaginal mode of partus, of 29, p=0.181, placebo 45.5%, FIG. 4): 24.1%
- proportion of women achieving spontaneous onset of labor (150 mg daily s.c., of 85 women, p 0.039): 42.4%
- number of subjects (women) that reach spontaneous onset of labor (150 mg, Study day 1, n=36): 0
- percent of subjects (women) that reach spontaneous onset of labor (150 mg, Study day 1, n=36): (0%)
- number of subjects (women) that reach spontaneous onset of labor (150 mg, Study day 2, n=36): 4
- percent of subjects (women) that reach spontaneous onset of labor (150 mg, Study day 2, n=36): (11%)
- number of subjects (women) that reach spontaneous onset of labor (150 mg, Study day 3, n=36): 15
- percent of subjects (women) that reach spontaneous onset of labor (150 mg, Study day 3, n=36): (42%)
- number of subjects (women) that reach spontaneous onset of labor (150 mg, Study day 4, n=36): 19
- percent of subjects (women) that reach spontaneous onset of labor (150 mg, Study day 4, n=36): (53%)
- number of subjects (women) that reach spontaneous onset of labor (150 mg, Study day 5, n=36): 26
- percent of subjects (women) that reach spontaneous onset of labor (150 mg, Study day 5, n=36): (72%)
- number of subjects (women) that reach spontaneous onset of labor (150 mg, Study day 6, n=36): 30
- percent of subjects (women) that reach spontaneous onset of labor (150 mg, Study day 6, n=36): (83%)
- number of subjects (women) that reach spontaneous onset of labor (150 mg, Study day 7, n=36): 34
- percent of subjects (women) that reach spontaneous onset of labor (150 mg, Study day 7, n=36): (94%)
- number of subjects (women) that reach spontaneous onset of labor (150 mg, Study day 8, n=36): 35
- percent of subjects (women) that reach spontaneous onset of labor (150 mg, Study day 8, n=36): (97%)
- number of subjects (women) that reach spontaneous onset of labor (150 mg, Study day 9, n=36): 36
- percent of subjects (women) that reach spontaneous onset of labor (150 mg, Study day 9, n=36): (100%)
- Fetal distress as indication for operative delivery (ODFD), number of patients (150 mg, n = 85): 20
- Labor induced with PGE-1, number of subjects (150 mg, n = 85): 7
- Labor induced with amniotomy, number of subjects (150 mg, n = 85): 39
- Labor induced with oxytocin, number of subjects (150 mg, n = 85): 38
- Labor induction with Balloon catheter, number of subjects (150 mg, n = 85): 37
- Labor induced, number of subjects (150 mg, n = 85): 48
- Labor induced with PGE-1, percent of subjects (150 mg, n = 85): (8.2%)
